According to US9758526B2, “Quinoline-substituted compound” (TAIHO PHARMACEUTICAL CO., LTD., priority 2013, dated 2017):

Assays:
EGFR (T790M/L858R) = target: T1, EGFR (T790M/L858R) (Homo sapiens, UniProt P00533, L858R/T790M); test: EGFR (T790M/L858R) kinase inhibitory activity; format: biochemical; conditions: ATP 1 μM, 25° C. for 120 minutes
T1 construct: purchased Carna Biosciences, Inc

[1] = test system: NCI-H1975 expressing EGFR (T790M/L858R); test: Growth inhibition, NCI-H1975 expressing EGFR (T790M/L858R); format: cell-based; conditions: Homo sapiens, NCI-H1975, 72 h; cultured three days, CellTiter-Glo
In short: (§1)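 Cells seeded and grown 1 day, then exposed 3 days at 37 °C/5% CO2 to serial dilutions (final DMSO 0.2%). CellTiter-Glo luminescence was read before dosing and after 3 days; GI50 from inhibition (C−T)/(C−C0)×100 by curve fitting.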

EGFR (d746-750/T790M) = target: T2, EGFR (d746-750/T790M) (Homo sapiens, UniProt P00533, DEL746-750/T790M); test: EGFR (d746-750/T790M) kinase inhibitory activity; format: biochemical; conditions: ATP 1.5 μM
T2 construct: purchased Carna Biosciences, Inc
In short: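 Recombinant human EGFR d746-750/T790M phosphorylating biotinylated peptide (250 nM) with 1.5 μM ATP, 10 mM MgCl2 and MnCl2, 2.5% DMSO, 120 min at 25 °C. EDTA-stopped; phosphotyrosine detected by Eu-PT66/APC-SA TR-FRET (665/620 nm ratio). IC50 from percent inhibition curves, EDTA-first samples as background.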

[2] = test system: A431 expressing EGFR (WT); test: Growth inhibition, A431 expressing EGFR (WT); format: cell-based; conditions: Homo sapiens, A-431, 72 h; cultured three days, CellTiter-Glo
In short: as §1

EGFR (d746-750) = target: T3, EGFR (d746-750) (Homo sapiens, UniProt P00533, DEL746-750); test: EGFR (d746-750) kinase inhibitory activity; format: biochemical; conditions: ATP 5 μM, kinase reaction 90 minutes
T3 construct: purchased Carna Biosciences, Inc
In short: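 Recombinant human EGFR (d746-750) with 250 nM biotinylated peptide, 5 μM ATP, 10 mM MgCl2 and 10 mM MnCl2, 2.5% DMSO, reacted 90 min at 25° C., stopped with EDTA. Phosphotyrosine detected by TR-FRET (Eu-PT66 antibody/APC-streptavidin, 665/620 nm ratio), with EDTA-pre-stopped background; IC50 (nM) from inhibition curve fit.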

EGFR (L858R) = target: T4, EGFR (L858R) (Homo sapiens, UniProt P00533, L858R); test: EGFR (L858R) kinase inhibitory activity; format: biochemical; conditions: ATP 4 μM
T4 construct: purchased Carna Biosciences, Inc
In short: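 Recombinant human EGFR (L858R) was incubated with 250 nM biotinylated peptide, 4 μM ATP, 10 mM MgCl2 and 10 mM MnCl2 in 2.5% DMSO for 120 min at 25 °C. The reaction was stopped with EDTA, and phosphotyrosine was detected by TR-FRET (Eu-PT66 antibody/APC-SA, 665/620 nm ratio). IC50 was obtained from the inhibition curves.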

EGFR (WT) = target: T5, EGFR (WT) (Homo sapiens, UniProt P00533); test: EGFR (WT) kinase inhibitory activity; format: biochemical; conditions: substrate peptide 500 nM
T5 construct: expressing a cytoplasmic domain of human EGFR (WT) with its N-terminus fused to a FLAG tag; FLAG (N); made in house; host or cells: insect Sf9 cells, baculovirus expression system
In short: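 The kinase was the cytoplasmic domain of human EGFR WT, N-terminally FLAG-tagged, expressed in Sf9 cells via baculovirus and purified on anti-FLAG agarose. Phosphotyrosine was detected by Eu-PT66/APC-SA TR-FRET (665/620 nm ratio), and IC50 was fitted from % inhibition.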

[3] = test system: HCC827 expressing EGFR (d746-750); test: Growth inhibition, HCC827 expressing EGFR (d746-750); format: cell-based; conditions: Homo sapiens, HCC827, 72 h; cultured three days, CellTiter-Glo
In short: as §1

T5 sequence (P00533 669-1210 limits assumed): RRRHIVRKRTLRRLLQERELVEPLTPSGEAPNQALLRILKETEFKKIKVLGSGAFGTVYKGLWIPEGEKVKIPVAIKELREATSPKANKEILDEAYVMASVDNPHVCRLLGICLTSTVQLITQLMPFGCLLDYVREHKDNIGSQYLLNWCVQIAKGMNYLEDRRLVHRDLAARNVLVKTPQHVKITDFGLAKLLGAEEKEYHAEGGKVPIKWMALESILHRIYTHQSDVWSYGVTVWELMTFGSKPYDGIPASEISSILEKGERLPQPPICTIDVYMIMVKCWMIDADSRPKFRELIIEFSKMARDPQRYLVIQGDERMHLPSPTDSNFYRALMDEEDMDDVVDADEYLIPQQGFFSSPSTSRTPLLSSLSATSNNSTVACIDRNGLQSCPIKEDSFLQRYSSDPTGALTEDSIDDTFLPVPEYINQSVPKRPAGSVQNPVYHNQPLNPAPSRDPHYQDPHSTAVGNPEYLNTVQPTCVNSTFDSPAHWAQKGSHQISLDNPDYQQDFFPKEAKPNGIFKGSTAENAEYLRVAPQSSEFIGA
T1 sequence (P00533 25-1210 T790M/L858R): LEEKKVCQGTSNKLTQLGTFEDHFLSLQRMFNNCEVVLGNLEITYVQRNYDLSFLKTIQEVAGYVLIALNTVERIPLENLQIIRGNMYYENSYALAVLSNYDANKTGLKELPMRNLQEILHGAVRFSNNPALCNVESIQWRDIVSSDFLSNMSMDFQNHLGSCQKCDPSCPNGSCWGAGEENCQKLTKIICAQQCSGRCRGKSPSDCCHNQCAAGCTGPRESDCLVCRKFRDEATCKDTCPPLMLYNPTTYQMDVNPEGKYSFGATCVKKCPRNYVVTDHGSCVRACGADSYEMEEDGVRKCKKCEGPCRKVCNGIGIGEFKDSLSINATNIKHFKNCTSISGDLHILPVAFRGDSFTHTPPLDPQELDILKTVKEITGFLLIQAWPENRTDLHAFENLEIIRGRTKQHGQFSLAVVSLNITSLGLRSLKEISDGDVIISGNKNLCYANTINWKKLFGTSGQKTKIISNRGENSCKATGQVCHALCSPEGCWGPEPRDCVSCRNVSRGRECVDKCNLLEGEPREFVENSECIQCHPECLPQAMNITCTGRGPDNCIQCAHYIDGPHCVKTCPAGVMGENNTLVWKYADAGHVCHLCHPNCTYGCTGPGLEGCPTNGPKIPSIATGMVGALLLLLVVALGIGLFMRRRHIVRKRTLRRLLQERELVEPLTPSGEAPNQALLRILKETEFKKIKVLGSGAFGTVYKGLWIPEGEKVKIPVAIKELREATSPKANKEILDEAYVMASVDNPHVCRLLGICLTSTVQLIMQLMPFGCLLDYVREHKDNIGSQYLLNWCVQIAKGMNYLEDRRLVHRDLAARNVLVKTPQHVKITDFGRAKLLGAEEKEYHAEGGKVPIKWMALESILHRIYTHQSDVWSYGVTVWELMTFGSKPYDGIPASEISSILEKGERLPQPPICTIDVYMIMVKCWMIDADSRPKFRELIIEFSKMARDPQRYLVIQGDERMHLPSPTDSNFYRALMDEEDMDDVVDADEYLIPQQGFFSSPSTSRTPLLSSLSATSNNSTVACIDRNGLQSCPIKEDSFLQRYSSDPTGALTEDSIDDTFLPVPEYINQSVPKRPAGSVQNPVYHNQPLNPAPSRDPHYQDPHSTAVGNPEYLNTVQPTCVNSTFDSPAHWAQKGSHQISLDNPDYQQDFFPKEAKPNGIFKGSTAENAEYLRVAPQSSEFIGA
T3 sequence (P00533 with tags, fused parts or gaps DEL746-750 limits assumed): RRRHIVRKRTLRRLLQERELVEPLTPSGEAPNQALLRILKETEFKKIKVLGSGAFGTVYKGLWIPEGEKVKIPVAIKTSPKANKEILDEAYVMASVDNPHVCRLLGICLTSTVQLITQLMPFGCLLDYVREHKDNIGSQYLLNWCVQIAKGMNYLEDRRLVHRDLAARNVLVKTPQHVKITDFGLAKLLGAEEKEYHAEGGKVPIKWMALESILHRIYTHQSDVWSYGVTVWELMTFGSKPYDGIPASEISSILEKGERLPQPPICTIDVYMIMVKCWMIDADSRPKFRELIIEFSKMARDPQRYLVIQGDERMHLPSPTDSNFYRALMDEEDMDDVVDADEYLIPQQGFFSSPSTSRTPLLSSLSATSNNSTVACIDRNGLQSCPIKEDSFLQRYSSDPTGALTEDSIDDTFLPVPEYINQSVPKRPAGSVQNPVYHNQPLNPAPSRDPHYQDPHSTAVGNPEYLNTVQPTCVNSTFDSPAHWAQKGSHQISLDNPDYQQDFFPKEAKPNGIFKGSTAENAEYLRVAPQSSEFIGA
T2 sequence (P00533 with tags, fused parts or gaps DEL746-750/T790M limits assumed): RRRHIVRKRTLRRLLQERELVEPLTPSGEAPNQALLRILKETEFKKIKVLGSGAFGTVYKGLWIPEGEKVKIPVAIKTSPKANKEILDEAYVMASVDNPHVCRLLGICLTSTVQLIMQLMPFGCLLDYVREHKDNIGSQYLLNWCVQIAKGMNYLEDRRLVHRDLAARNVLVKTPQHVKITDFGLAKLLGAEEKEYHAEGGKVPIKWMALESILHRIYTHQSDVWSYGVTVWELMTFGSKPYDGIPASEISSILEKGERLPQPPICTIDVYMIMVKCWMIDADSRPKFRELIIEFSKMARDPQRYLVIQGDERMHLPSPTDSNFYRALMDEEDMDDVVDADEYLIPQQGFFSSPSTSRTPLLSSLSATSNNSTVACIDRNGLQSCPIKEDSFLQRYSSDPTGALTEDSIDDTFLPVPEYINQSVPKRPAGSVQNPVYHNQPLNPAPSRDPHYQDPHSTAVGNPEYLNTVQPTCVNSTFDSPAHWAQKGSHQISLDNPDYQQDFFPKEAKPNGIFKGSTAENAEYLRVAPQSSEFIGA
T4 sequence (P00533 25-1210 L858R): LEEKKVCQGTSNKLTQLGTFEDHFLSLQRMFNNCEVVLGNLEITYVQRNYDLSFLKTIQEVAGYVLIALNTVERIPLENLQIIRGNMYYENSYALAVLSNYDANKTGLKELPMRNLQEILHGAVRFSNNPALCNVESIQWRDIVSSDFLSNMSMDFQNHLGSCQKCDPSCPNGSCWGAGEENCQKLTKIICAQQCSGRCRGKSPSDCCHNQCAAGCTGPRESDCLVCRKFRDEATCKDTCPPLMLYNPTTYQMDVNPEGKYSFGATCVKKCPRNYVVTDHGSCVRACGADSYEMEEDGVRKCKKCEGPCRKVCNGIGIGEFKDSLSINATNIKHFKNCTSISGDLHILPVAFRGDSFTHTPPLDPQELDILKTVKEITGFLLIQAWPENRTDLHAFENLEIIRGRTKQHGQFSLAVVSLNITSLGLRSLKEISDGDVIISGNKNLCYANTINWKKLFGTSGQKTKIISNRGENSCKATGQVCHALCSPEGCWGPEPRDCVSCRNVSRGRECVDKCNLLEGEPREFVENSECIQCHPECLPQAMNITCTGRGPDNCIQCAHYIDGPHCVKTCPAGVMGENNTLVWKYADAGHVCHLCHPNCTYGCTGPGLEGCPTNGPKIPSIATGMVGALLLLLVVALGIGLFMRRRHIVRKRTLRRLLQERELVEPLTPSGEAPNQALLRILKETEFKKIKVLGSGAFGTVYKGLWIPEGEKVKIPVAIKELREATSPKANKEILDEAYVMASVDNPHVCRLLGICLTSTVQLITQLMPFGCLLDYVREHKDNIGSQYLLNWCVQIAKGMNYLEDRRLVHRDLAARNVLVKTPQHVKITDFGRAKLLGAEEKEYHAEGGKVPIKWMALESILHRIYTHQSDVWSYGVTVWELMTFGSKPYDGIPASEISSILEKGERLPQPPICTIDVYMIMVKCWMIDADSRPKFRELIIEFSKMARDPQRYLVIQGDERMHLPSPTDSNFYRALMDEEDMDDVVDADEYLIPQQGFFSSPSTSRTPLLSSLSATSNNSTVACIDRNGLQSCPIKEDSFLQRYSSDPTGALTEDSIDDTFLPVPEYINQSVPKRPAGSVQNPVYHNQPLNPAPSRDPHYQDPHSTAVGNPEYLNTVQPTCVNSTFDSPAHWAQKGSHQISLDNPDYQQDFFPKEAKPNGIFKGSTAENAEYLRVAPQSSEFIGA

IC50 (EGFR (T790M/L858R)): < 0.5 nM
GI50 [1]: 9 nM
IC50 (EGFR (d746-750/T790M)): < 0.15 nM
GI50 [2]: 370 nM
IC50 (EGFR (d746-750)): < 0.15 nM
IC50 (EGFR (L858R)): < 0.5 nM
IC50 (EGFR (WT)): 0.7 nM
GI50 [3]: 1.9 nM
SMILES: C=CC(=O)N[C@@H]1Cn2c(c(-c3cnc4ccccc4c3)c3c(N)ncnc32)C1=C [Example 1, (S)—N-(4-amino-6-methylene-5-(quinolin-3-yl)-7,8-dihydro-6H-pyrimido[5,4-b]pyrrolizin-7-yl)acrylamide]
